# Source: patent publication US9597436B2, “Advanced heart failure treatment material as myocardial/cardiovascular regeneration device” (Osaka University, priority 2012, dated 2017)
# Experiments:
# fibroblasts = conditions: cited from earlier work
# [1] = tested on: coculture of NHDF and HUVEC; assay: Internal regeneration factors under coculture of NHDF and HUVEC; type: cell-based, human
# Description: The compound 1 is a low molecular […] having the non-PG skeleton, and TXA2 synthase inhibitory action as well as selective IP agonist action is integrated into the molecule.
# [2] = tested on: acute hepatopathy induced by carbon tetrachloride; conditions: cited from earlier work
compound,measurement,setting,value
"O=C(O)COc1cccc2c1CCC=C2CCO/N=C(\c1ccccc1)c1cccnc1 [Compound 1, (E)-[5-[2-[1-phenyl-1-(3-pyridyl)methylideneaminoxy]ethyl]-7,8-dihydronaphthalen-1-yloxy]acetic acid]","migration, proliferation, and collagen production of fibroblasts",fibroblasts,suppresses
same,phosphorylation of ERK1/2,"fibroblasts; progressed due to pathology, by activation of cAMP/PKA",suppresses
same,"internal regeneration factors (HGF, VEGF, EGF, IGF-1, SDF-1, G-CSF)",[1],indicates various types of internal regeneration factors
same,hepatocyte protection (anti-apoptotic and anti-necrosis action),[2],exhibits hepatocyte protection effects
same,increases in ALT and AST in blood,[2],suppresses
